The test system of test [1] is mouse embryonic hippocampal neurons. Nature of the test: Tracer uptake in primary mouse hippocampal neurons. To be noted: 100 nM, 1 h; E16.5 neurons cultured 14 days. In kind it is cell-based.
Method: (§1) Finally, we evaluated whether tracer (11) is applicable in primary cells endogenously expressing OTR.
(§2) Primary UtSMC and hippocampal neuronal cultures.
(§3) Muscle Cell Basal Medium 2 (PromoCell), including supplements (PromoCell) and P/S (Gibco) at 37°C and 5%
(§4) CO2. Cells were trypsinized with 0.1% Trypsin/EDTA (Gibco) and plated on glass -bottom 96-well plates (CellVis)
(§5) at a density of 10,000 cells/well in full growth medium. The next day, cells were stimulated with tracer ( 11), OTA ,
(§6) dissociated with flame -polishe d Pasteur pipettes in Hank’s balanced salt solution (HBSS, Gibco). Tissue pieces
(§7) were subsequently enzymatically dissociated with 0.1% Trypsin/EDTA (Gibco) in Neurobasal A (NBA, Gibco)
(§8) containing 1,000U/mL DNase (Sigma) for 5 min at 37°C. Cells were triturated with flamed Pasteur pipettes,
(§9) filtered through a 40 µm nylon mesh ( Thermo Fisher Scientific ), centrifuged at 200 g for 5 min, and washed up to
(§10) three times in NBA containing P/S (Gibco), GlutaMax (Gibco) , and B27 supplement (Gibco). Cells were plated at
(§11) 20,000 cells/well on PDL -coated (Sigma) glass -bottom black 96 -well microscopy plates (Cellvis) and grown at
(§12) 37°C with 5% CO 2. Half of the medium was replaced every 3 -4 days. After 13 -14 days in vitro , neuronal cultures
(§13) were exposed to 100 nM tracer ( 11) for one hour, with or without 30-min pretreatment with 10 µM of the peptide
antagonist OTA. […]
Test [2] addresses T1, hOTR-GFP in HEK293 cells (Homo sapiens, UniProt P30559).
T1 sequence (P30559 1-389): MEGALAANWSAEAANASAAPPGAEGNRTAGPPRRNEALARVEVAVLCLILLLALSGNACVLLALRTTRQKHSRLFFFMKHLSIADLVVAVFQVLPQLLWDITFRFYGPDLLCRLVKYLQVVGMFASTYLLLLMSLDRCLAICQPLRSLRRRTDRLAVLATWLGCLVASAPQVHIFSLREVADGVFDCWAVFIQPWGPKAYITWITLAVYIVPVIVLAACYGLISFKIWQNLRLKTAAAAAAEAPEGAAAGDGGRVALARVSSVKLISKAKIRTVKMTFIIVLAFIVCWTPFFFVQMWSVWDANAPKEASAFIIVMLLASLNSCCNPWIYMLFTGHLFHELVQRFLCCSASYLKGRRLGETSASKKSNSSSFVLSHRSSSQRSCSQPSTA
As to the kind of experiment: Live-cell imaging (ZEISS Lattice SIM) of hOTR-GFP internalization. Conditions: 10 and 100 nM tracer.
Method: We first exposed hOTR‐GFP cells to 10 and 100 nM of tracer (11) during acquisition with a ZEISS Lattice SIM microscope (Movies S1 and S2). […] To further disentangle the dynamics of our tracer‐mediated OTR engagement and trafficking, we evaluated its applicability in single‐particle tracking (SPT) in living cells. We cultured HEK293 (parent cells) and HEK293 cells stably expressing hOTR‐GFP (HEK293‐hOTR‐GFP) and performed total internal reflection microscopy (TIRFM) SPT universal point accumulation imaging in nanoscale topography (uPAINT) following the addition of 1 nM of tracer (10). […] This concentration was selected to facilitate the detection and tracking of single molecules of the fluorescent agonist tracer following binding to hOTR at the plasma membrane by uPAINT. […] We first assessed the number of tracks (indicative of the number of single molecules detected/tracked). […] We quantified the mean squared displacement of each trajectory to calculate its apparent diffusion coefficient. The diffusion coefficient of each trajectory of the tracer bound to hOTR was plotted as a frequency distribution (Figure 7b2 ).
Live cell imaging. For 3D live cell imaging, attached and serum -starved HEK293-hOTR-GFP cells in 96-well
glass bottom plates were imaged on a ZEISS Lattice SIM Microscope using a 40x oil objective and SIM 2 post- […]

Test [3] concerns human uterine smooth muscle cells (UtSMC). Nature of the test: Stimulation of primary human uterine smooth muscle cells (UtSMC). The test is classed as cell-based.
Method: as §1, §2, §3, §4, §5, §6, §7, §8, §9, §10, §11, §12, §13
antagonist OTA. In parallel, neurons were exposed to 100 nM of the scrambled tracer SCR for 1 h. After
stimulations, cells were washed with ice-cold PBS and fixed with 4% paraformaldehyde for 30 min on ice. Next,
washed again in PBS, and directly imaged on a Zeiss LSM880 confocal microscope.
The target of test [4] is T1, hOTR-GFP in HEK293 cells. Nature of the test: hOTR-GFP internalization and tracer uptake, confocal microscopy after fixation/ICC. The test is classed as cell-based. Details: expressed in transfected cells. Conditions: for Cy3s signal accumulation in hOTR-expressing cells: post ICC, normalized to control.
From the text: To validate the application scope of our tracers for biological systems and post‐hoc imaging, we used HEK293 cells stably overexpressing human OTR or V1aR, tagged with a C‐terminal fused green fluorescent protein to visualize receptor trafficking (hOTR‐GFP or hV1aR‐GFP, respectively).
subsequently washed with PBS and processed for immunocytochemistry.
Immunocytochemistry and imaging. Unspecific protein binding was quenched with 5% normal donkey serum
(Jackson ImmunoResearch), 2% bovine serum albumin (Sigma-Aldrich, Merck), and 0.2% Triton X-100 (Sigma-
Aldrich, Merck) in PBS. Next, cells were exposed to primary antibody cocktails containing FITC-conjugated goat-
anti-GF (1:2000, Sigma-Aldrich, Merck) and mouse pCREB (1:300, Sigma-Aldrich, Merck) in PBS with 2%
normal donkey serum, 0.1% BSA, and 0.2% Triton X-100 overnight at 4°C. After three PBS washing steps, wells
were incubated with secondary antibody cocktails (1:400, Jackson Immuno Research) containing suitable
were mounted with glycerol gelatin (Sigma-Aldrich, Merck) and imaged on a Zeiss LSM 780/880 confocal
microscope (Zeiss). Images were analyzed and equally contrasted for visualization with ZEN Pro (Zeiss) and
The target in the next test is T2, mV2R (Mus musculus, UniProt O88721).
T2 construct: expressed in transfected cells; host or cells: wild-type HEK293, transient transfection (jetPRIME); membrane preparation
As to the kind of experiment: Radioligand displacement, membranes of HEK293 cells transiently expressing mV2R. Conditions: murine receptor, transient expression; mean ± SD. In kind it is binding. (Displacement assays read how much labelled ligand stays bound in the presence of the test substance.)

Test [5] addresses T3, hOTR (Homo sapiens, UniProt P30559).
T3 construct: expressed in transfected cells
T3 sequence (P30559 1-389): T1 sequence (P30559 1-389)
Nature of the test: Radioligand displacement and saturation binding, membranes of HEK293 cells stably expressing hOTR, [3H]-OT. Conditions: [3H]-OT; mean ± SD, duplicates, at least three independent experiments; read-out: Ki hOTR.
Method: (§14) Membrane preparation for radioligand assays. HEK293 cells were used for stable expression of GFP-tagged
(§15) human OTR, V1aR, V1bR, and V2R isoforms and transient expression of murine OTR, V1aR, V1bR, and V2R
(§16) isoforms. Cell culture work was performed under sterile conditions with DMEM high glucose containing 10%
(§17) FBS, and 50 U/mL P/S. Cells were cultured in 10 cm diameter cell culture dishes at 37°C in a humidified
(§18) atmosphere with 5% CO2, and cells were passaged at 70-90% confluency.
(§19) medium of stable cell lines at 0.5 mg/mL to sustain selection pressure, and cells were harvested at 90% confluency
(§20) for membrane preparation. For transient expression of murine receptors, 60% confluent wild-type HEK293 cells
(§21) were transfected using the jetPRIME transfection reagent according to the manufacturer’s protocol and harvested
(§22) 48 h post-transfection. For membrane preparation, cells were washed with ice-cold PBS pH 7.4, scraped into fresh
(§23) PBS on ice, and centrifuged at 4°C and 178 g for 10 min. The pellet was resuspended in a TRIS buffer solution
ice-cold water bath sonicator. The obtained solution was centrifuged for 20 min at 54,192 g and 4°C. The obtained
pellet was resuspended in TRIS buffer without protease inhibitors, homogenized with an ultrasonicator, aliquoted,
and stored at -80°C until further use. A BCA assay was used to determine the protein concentration of the
Radioligand displacement and saturation experiments. Assay solutions consisting of competing ligand,
radioligand, and membrane preparation were incubated for 1 h at 37°C. Standard binding buffer solution (50 mM
TRIS, 5 mM MgCl2, 0.1% BSA, pH 7.4) was used to prepare all dilutions; the final assay volume was 200 µL.
concentrations were 8 μg/vial for hOTR, 5 μg/vial for hV1aR, and 3 μg/vial for hV1bR and hV2R, respectively , and
4 μg/vial for mOTR, 1.5 μg/vial for m V1aR, 3 μg/vial for mV 1bR, and 10 μg/vial for mV 2R. To assess non-specific
Specific binding was determined by
subtraction of the non-specific binding from the total binding. In radioligand displacement experiments, semi -
logarithmically spaced concentrations of respective test ligands were applied to determine K i values based on
assessed Kd values of radiotracers and by fitting the data to a three -parameter logistic Hill equation and applying
the Cheng and Prusoff approximation. 10 In case of human receptors from stable cell lines, Kd and Bmax values were
In case of murine receptors from transient
was performed using GraphPad Prism (version 9.5.1) . After incubation, membranes were filtered and washed on
a Skatron Cell Harvester using polyethyleneimine -coated glass fiber filters (type B, soaked in 0.1% aqueous
1 mM MgCl2, pH 7.4, 4°C). The soaked filter pieces were transferred into counter vials, and 2 mL of scintillation
cocktail (LSC Universalcocktail) was added to each vial. After 1 h incubation at 25°C on a shaker, radioligand
concentration was determined using a Tri -Carb liquid scintillation analyzer.
response curves were obtained from radioligand displacement experiments of membrane preparations of HEK293
Values were normalized to the percentage
of maximum binding (i.e., no competing ligand present). Specific binding was obtained from the subtraction of
non-specific binding from total binding. K i values were derived from one-site-fitted competition binding curves.

For test [6], the target named is T3, hOTR. Set-up: method as in PMID 8126695. To be noted: cited from earlier work.
Test [7] has as its target hV1aR-GFP in HEK293 cells (Homo sapiens, UniProt P37288). As to the kind of experiment: Tracer signal and internalization in hV1aR-GFP HEK293 cells post ICC. Conditions: 100 nM.

Consider 3 compounds from publication PMC12603982 (Angewandte Chemie (International Ed. in English), 2025).

Starred links: 1 amine or outer side, 2 acyl side, 3 side chain; linkers in the order of their positions; H or OH if unused. Positions of bridges follow the written chain, without caps; N, C: chain ends. Non-standard residues stand in square brackets, D forms with d. Residues, ends and D or L forms follow the SMILES beside them. Groups on a side chain read outwards from the residue. *: point of attachment. X1 = CCN1C(=CC=CC2=[N+](CCCCCC(=O)*)c3ccc(S(=O)(=O)O)cc3C2(C)C)C(C)(C)c2cc(S(=O)(=O)[O-])ccc21; d(εLys) = N[C@H](CCCCN[*:1])C(=O)[*:2]; PEG5 = NCCOCCOCCOCCOCCOCCC(=O)O; Orn = NCCC[C@H](N)C(=O)O; Mpa = O=C(O)CCS

Sequence of hV1aR-GFP in HEK293 cells (P37288 whole entry): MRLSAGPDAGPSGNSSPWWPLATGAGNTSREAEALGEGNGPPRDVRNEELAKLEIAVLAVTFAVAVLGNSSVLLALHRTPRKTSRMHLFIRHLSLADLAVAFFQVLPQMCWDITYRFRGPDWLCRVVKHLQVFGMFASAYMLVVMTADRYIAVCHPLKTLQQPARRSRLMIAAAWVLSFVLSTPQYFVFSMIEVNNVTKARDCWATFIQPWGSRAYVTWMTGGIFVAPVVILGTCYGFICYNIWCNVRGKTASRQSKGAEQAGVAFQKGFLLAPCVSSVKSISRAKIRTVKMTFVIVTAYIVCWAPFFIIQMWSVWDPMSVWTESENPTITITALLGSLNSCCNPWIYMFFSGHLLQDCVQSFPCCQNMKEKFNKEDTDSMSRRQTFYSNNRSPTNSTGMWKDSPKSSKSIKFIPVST
T2 sequence (O88721 whole entry): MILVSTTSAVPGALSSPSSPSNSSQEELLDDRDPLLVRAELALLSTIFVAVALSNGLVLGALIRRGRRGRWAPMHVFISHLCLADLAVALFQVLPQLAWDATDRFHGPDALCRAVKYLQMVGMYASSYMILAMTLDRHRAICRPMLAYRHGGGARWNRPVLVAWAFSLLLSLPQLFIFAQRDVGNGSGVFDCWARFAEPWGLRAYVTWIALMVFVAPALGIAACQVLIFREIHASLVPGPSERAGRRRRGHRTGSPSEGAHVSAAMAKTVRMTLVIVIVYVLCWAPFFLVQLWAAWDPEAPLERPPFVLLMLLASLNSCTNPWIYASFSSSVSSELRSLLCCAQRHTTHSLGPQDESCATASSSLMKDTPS
Method for mV2R: as §14, §15, §16, §17, §18, §19, §20, §21, §22, §23
The obtained solution was centrifuged for 20 min at 54,192 g and 4°C. The obtained […]
assessed Kd values of radiotracers and by fitting the data to a three -parameter logistic Hill equation and applying […]
concentration was determined using a Tri -Carb liquid scintillation analyzer. […]

A word on the Ki: it is the equilibrium dissociation constant of an inhibitor or competing ligand from its target. For the compound `CC[C@H](C)[C@@H]1NC(=O)[C@H](Cc2ccc(O)cc2)NC(=O)CCSSC[C@@H](C(=O)N2CCC[C@H]2C(=O)N[C@@H](CCCNC(=O)[C@@H](CC(=O)O)NC(=O)CCOCCOCCOCCOCCOCCNC(=O)[C@H](N)CCCCNC(=O)CCCCC[N+]2=C(C=CC=C3N(CC)c4ccc(S(=O)(=O)[O-])cc4C3(C)C)C(C)(C)c3cc(S(=O)(=O)O)ccc32)C(=O)NCC(N)=O)NC(=O)[C@H](CC(N)=O)NC(=O)[C@H](CCC(N)=O)NC1=O` [Compound 11] ([Mpa]YIQNCP[Orn]([dD-PEG5-d(εLys)-X1])G-NH2; disulfide 1-6), the “Tracer uptake in mouse hippocampal neurons” value in test [1] is given as “robust uptake in subpopulations of neurons”. Moreover, at hOTR-GFP in HEK293 cells [2], the “Time to peak internalization” value fell in the range of 5 to 10 min. For the same compound, the “Contraction of UtSMC” value in test [3] (100 nM, live-cell imaging) was “induced rapid contractions within minutes”. Also, the “Tracer uptake in UtSMC” value in test [3] (60 min treatment) is “accumulation was observed in vesicle‐like structures within 60 min”. On hOTR-GFP in HEK293 cells [4], the “Cy3s signal accumulation in hOTR-expressing cells” value was “significant concentration‐dependent accumulation”. For the same compound, the Ki at mV2R was > 10 µM; at hOTR [5] it was 0.002 µM.

One may read the IC50 as the concentration that inhibits the measured activity by half. As to `Cc1ccccc1N1CCN(S(=O)(=O)C[C@]23CC[C@H](C[C@@H]2NC(=O)[C@@H](N)CCS(C)(=O)=O)C3(C)C)CC1` [L368,899, reference compound], the “Effect of antagonist pretreatment on tracer (11) uptake” value on hOTR-GFP in HEK293 cells [4] (10 µM, 30 min pretreatment) was “completely prevented tracer (11) uptake”. Also, on hOTR [6], the IC50 is 0.026 µM.

As for `CC[C@H](C)[C@@H]1NC(=O)[C@H](Cc2ccc(O)cc2)NC(=O)CCSSC[C@@H](C(=O)N2CCC[C@H]2C(=O)N[C@@H](CCCNC(=O)CCOCCOCCOCCOCCOCCNC(=O)[C@H](N)CCCCNC(=O)CCCCC[N+]2=C(C=CC=C3N(CC)c4ccc(S(=O)(=O)[O-])cc4C3(C)C)C(C)(C)c3cc(S(=O)(=O)O)ccc32)C(=O)NCC(N)=O)NC(=O)[C@H](CC(N)=O)NC(=O)[C@H](CCC(N)=O)NC1=O` [Compound 8, d(Orn)^8OT‐[PEG5‐k^ε‐Cy3s]^8] ([Mpa]YIQNCP[Orn]([PEG5-d(εLys)-X1])G-NH2; disulfide 1-6), in test [7], the “Fluorescent signals and internalization in hV1aR-containing cells” value is “displayed fluorescent signals and internalization”. Moreover, the “Cy3s signal accumulation in hOTR-expressing cells” value at hOTR-GFP in HEK293 cells [4] is “significant concentration‐dependent accumulation”.
